The record followed here is ChEMBL document CHEMBL1201862, “PubChem BioAssay data set” (2004).

Test systems include CCRF-CEM; OVCAR-5; SK-MEL-5; UACC-257; HCT-116; KM12; SF-268; Malme-3M; SK-OV-3; OVCAR-8; SF-539; M14; OVCAR-3; SW-620; SK-MEL-2; HCT-15; SF-295; TK-10.
Holding throughout (assay): NCI tumour cell line growth inhibition, 48 h

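Step 1: Grow cells in 96-well plates. Step 2: Expose to compound for 48 hours at 5 concentrations. Step 3: Interpolate endpoints linearly; if unreached, use highest concentration. GI50 is the concentration that inhibits growth by half.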 Calls of active or inactive are those of the source. Rule as the data show it: active = GI50 up to about 1.1 µM and inactive = higher.

`COc1ccc(CCc2cc(OC)c(O)c(OC)c2)cc1`: the GI50 with CCRF-CEM is 77.1 µM (inactive); with OVCAR-5, 44 µM (inactive); in the assay with SK-MEL-5, 32.8 µM (inactive); in the assay on UACC-257, 29.3 µM (inactive); in the assay on HCT-116 it was 59 µM (inactive); in the assay with KM12, 58.2 µM (inactive). Also, the GI50 in the assay on SF-268 is 73.5 µM (inactive); in the assay on Malme-3M, 74.1 µM (inactive); in the assay on SK-OV-3, > 100 µM (inactive); with OVCAR-8 it was > 100 µM (inactive); in the assay on SF-539, 60.7 µM (inactive); with M14, 77.3 µM (inactive). Also, the results for the GI50 in the assay on OVCAR-3, in the assay with SW-620 and in the assay with SK-MEL-2 were 79.4 µM (inactive), 37.4 µM (inactive) and 53 µM (inactive), respectively.
As for `NC(=O)c1ccc([N+](=O)[O-])cc1`, the GI50 in the assay on CCRF-CEM, with SK-MEL-5, with UACC-257, with KM12, in the assay with SF-268 and in the assay with Malme-3M was > 100 µM (inactive) each time. Further, the GI50 with SK-OV-3 is > 100 µM (inactive); in the assay with OVCAR-8, > 100 µM (inactive); with HCT-15, above 100 µM; in the assay on SF-539, > 100 µM (inactive); with M14 it was > 100 µM (inactive); with SF-295 it was > 100 µM (inactive). In addition, the GI50 in the assay on OVCAR-3, in the assay on SW-620, in the assay on TK-10 and in the assay with SK-MEL-2 was > 100 µM (inactive) in each case.
Regarding `Cn1nc(-c2ccccc2)c(C(=O)/C=C/c2ccc(F)cc2)c(N2CCCC2)c1=O`, the GI50 in the assay on CCRF-CEM was 5.36 µM (inactive); with SK-MEL-5 it was 12.4 µM (inactive); in the assay on HCT-116 it was 6.5 µM (inactive); in the assay on SF-268 it was 14.3 µM (inactive); in the assay with SK-OV-3, 19.5 µM (inactive); in the assay with OVCAR-8, 15.1 µM (inactive). For the same compound, the GI50 with HCT-15 was 12.2 µM; in the assay on SF-539 it was 13.6 µM (inactive); with M14 it was 15.9 µM (inactive); with SW-620, 15.6 µM (inactive); in the assay on TK-10, 24 µM (inactive).
As to `COCCN1C2=CCCCC2=Nc2c(N)nc(N)nc21`, the GI50 in the assay with CCRF-CEM, in the assay on OVCAR-5, with SK-MEL-5, in the assay on UACC-257, in the assay on HCT-116 and in the assay with KM12 was > 100 µM (inactive) each time. In addition, the GI50 with SF-268 is > 100 µM (inactive); with Malme-3M, > 100 µM (inactive); with SK-OV-3, > 100 µM (inactive); with OVCAR-8 it was > 100 µM (inactive); in the assay on HCT-15, above 100 µM; in the assay with SF-539, > 100 µM (inactive). For the same compound, the GI50 is > 100 µM (inactive) in the assay on M14; > 100 µM (inactive) with SF-295; 38 µM (inactive) in the assay on OVCAR-3; > 100 µM (inactive) in the assay on TK-10; > 100 µM (inactive) in the assay on SK-MEL-2.
Regarding `CC(=O)C1Cn2c(nc3ccccc32)C[Se]1` (stereo not given), the GI50 is 3.49 µM (inactive) in the assay with CCRF-CEM; 3.05 µM (inactive) with OVCAR-5; 2 µM (inactive) in the assay on SK-MEL-5; 2.48 µM (inactive) with UACC-257; 2.2 µM (inactive) with HCT-116; 3.4 µM (inactive) with KM12. Also, the GI50 with SF-268 was 3.85 µM (inactive); in the assay with Malme-3M, 2.47 µM (inactive); with SK-OV-3, 19.5 µM (inactive); in the assay with OVCAR-8 it was 4.09 µM (inactive); with HCT-15 it was 4.56 µM; in the assay on SF-539, 2.29 µM (inactive). Further, the GI50 in the assay on M14 is 2.3 µM (inactive); in the assay on SF-295, 3.26 µM (inactive); with OVCAR-3, 2.22 µM (inactive); in the assay on SW-620 it was 5.28 µM (inactive); in the assay with TK-10, 4.41 µM (inactive).
`CC#CC1C2CCCC1(CSc1ccccc1)NC(=O)O2` (stereo not given): the GI50 in the assay with OVCAR-5, in the assay with SK-MEL-5, in the assay with UACC-257, with HCT-116, in the assay with KM12 and in the assay on SF-268 was > 100 µM (inactive) in each case. For the same compound, the GI50 with Malme-3M was > 100 µM (inactive); in the assay on SK-OV-3, > 100 µM (inactive); in the assay on OVCAR-8 it was > 100 µM (inactive); in the assay on HCT-15, above 100 µM; in the assay on SF-539 it was > 100 µM (inactive); in the assay on M14, > 100 µM (inactive). Also, the GI50 in the assay on SF-295, with OVCAR-3, in the assay with SW-620, in the assay on TK-10 and in the assay with SK-MEL-2 was > 100 µM (inactive) in each case.
On to `O=C(c1ccc(Cl)cc1Cl)N(/N=C/C=C/c1ccccc1)c1nnc(-c2ccccc2)c(-c2ccccc2)n1`, for which the GI50 in the assay on CCRF-CEM, with OVCAR-5, in the assay on SK-MEL-5, with UACC-257, with KM12 and with SF-268 was > 100 µM (inactive) each time. Further, the GI50 is > 100 µM (inactive) in the assay on Malme-3M; > 100 µM (inactive) in the assay on SK-OV-3; > 100 µM (inactive) in the assay with OVCAR-8; above 100 µM in the assay on HCT-15; > 100 µM (inactive) in the assay with SF-539; > 100 µM (inactive) in the assay on SF-295. For the same compound, the GI50 in the assay on OVCAR-3, in the assay on SW-620, in the assay on TK-10 and with SK-MEL-2 was > 100 µM (inactive) in each case.
As for `O=C1[C@@H]2C(c3c(Cl)cccc3Cl)=NO[C@@H]2C(=O)N1c1ccc(Cc2ccc(N3C(=O)[C@H]4C(c5c(Cl)cccc5Cl)=NO[C@H]4C3=O)cc2)cc1`, the GI50 in the assay with CCRF-CEM, in the assay with OVCAR-5, in the assay on SK-MEL-5, in the assay on UACC-257, in the assay with KM12 and in the assay with SF-268 was > 100 µM (inactive) in each case. Also, the GI50 was > 100 µM (inactive) in the assay on Malme-3M; > 100 µM (inactive) in the assay on SK-OV-3; > 100 µM (inactive) in the assay on OVCAR-8; above 100 µM in the assay with HCT-15; > 100 µM (inactive) with SF-539; > 100 µM (inactive) in the assay with M14. Besides, the GI50 in the assay with SF-295, in the assay on OVCAR-3, in the assay with SW-620, with TK-10 and in the assay on SK-MEL-2 was > 100 µM (inactive) each time.
As to `CSc1ccc(/C=C2/C[N+](C)(C)C/C(=C/c3ccc(SC)cc3)C2=O)cc1`, the GI50 was 3.56 µM (inactive) in the assay with CCRF-CEM; 23.4 µM (inactive) with OVCAR-5; 15.8 µM (inactive) with UACC-257; 4.85 µM (inactive) in the assay on KM12; 10.5 µM (inactive) with SF-268; 4.16 µM (inactive) with Malme-3M. Moreover, the GI50 in the assay with OVCAR-8 is 8.89 µM (inactive); in the assay on HCT-15, 47 µM; in the assay on SF-539, 17.7 µM (inactive); in the assay on M14 it was 13.5 µM (inactive); in the assay with SF-295, 27.2 µM (inactive); with OVCAR-3, 15.9 µM (inactive). Also, the GI50 in the assay with SW-620 is 12.2 µM (inactive); in the assay with TK-10 it was 50.7 µM (inactive); in the assay on SK-MEL-2, 20.1 µM (inactive).
`CCOC(=O)c1cc2c(OCc3ccccc3)c(OC)cc3c2c(n1)N(c1ccc(OC)cc1)C(C)C3` (stereo not given): the GI50 with CCRF-CEM, with OVCAR-5, with SK-MEL-5, in the assay with HCT-116, in the assay with SF-268 and with Malme-3M was > 50 µM (inactive) each time. For the same compound, the GI50 in the assay with SK-OV-3 is > 50 µM (inactive); in the assay with OVCAR-8 it was > 50 µM (inactive); with HCT-15, above 50 µM; in the assay with M14, > 50 µM (inactive); with SF-295 it was > 50 µM (inactive); in the assay on OVCAR-3, 23.2 µM (inactive). The GI50 in the assay with SW-620, in the assay with TK-10 and with SK-MEL-2 was > 50 µM (inactive) throughout.
In the case of `O=c1c2ccccc2nc(-c2ccccc2)n1NC(=S)Nc1ccc(Cl)cc1[N+](=O)[O-]`, the GI50 with CCRF-CEM was 62.4 µM (inactive); with OVCAR-5, > 100 µM (inactive); with SK-MEL-5, 58.7 µM (inactive); in the assay on UACC-257, 88.3 µM (inactive); in the assay on HCT-116, 54.2 µM (inactive); in the assay with KM12, 66.4 µM (inactive). For the same compound, the GI50 is > 100 µM (inactive) in the assay with SF-268; > 100 µM (inactive) in the assay with Malme-3M; > 100 µM (inactive) with SK-OV-3; > 100 µM (inactive) in the assay on OVCAR-8; 35 µM in the assay with HCT-15; 41.1 µM (inactive) in the assay on SF-539. In addition, the GI50 in the assay with M14 is > 100 µM (inactive); in the assay with SF-295, 92.3 µM (inactive); in the assay on SW-620, > 100 µM (inactive); in the assay with TK-10, > 100 µM (inactive); with SK-MEL-2, > 100 µM (inactive).
As for `O=C(O)c1cc(=O)c2cc(C(=O)c3cccs3)c(Cl)c(Cl)c2o1`, the GI50 in the assay with CCRF-CEM, in the assay with OVCAR-5, in the assay with SK-MEL-5, in the assay on UACC-257, with KM12 and in the assay on SF-268 was > 100 µM (inactive) each time. Further, the GI50 in the assay with Malme-3M, with SK-OV-3, with OVCAR-8, in the assay on M14, in the assay on SF-295 and in the assay on OVCAR-3 was > 100 µM (inactive) throughout. Moreover, the GI50 with SW-620, in the assay with TK-10 and with SK-MEL-2 was > 100 µM (inactive) throughout.
With `COc1ccc(COCC(Cn2ccnc2)OCc2ccc(C(=O)O)cc2)cc1` (stereo not given), the GI50 in the assay on CCRF-CEM, with OVCAR-5, in the assay with SK-MEL-5, with UACC-257, in the assay on HCT-116 and in the assay with KM12 was > 100 µM (inactive) each time. Further, the GI50 with SF-268 is > 100 µM (inactive); with Malme-3M, > 100 µM (inactive); with SK-OV-3, > 100 µM (inactive); in the assay on OVCAR-8, > 100 µM (inactive); in the assay on HCT-15, above 100 µM; in the assay with SF-539 it was > 100 µM (inactive). For the same compound, the GI50 in the assay with M14, with SF-295, in the assay with SW-620, with TK-10 and in the assay on SK-MEL-2 was > 100 µM (inactive) each time.
